Test results published in patent US8057829B2, “Methods for repelling insects using sesquiterpene hydrocarbons and their derivatives” (Sterling International Inc., priority 2008, dated 2011).

What was measured:
[1] = tested on: female mosquito Culex pipiens antenna; assay: GC-EAD antennal response, Culex pipiens; conditions: female Culex pipiens antennae; about 100 ng of each compound; responses weak, but repeatable; FIGS. 7 and 8
Experimental: The GC-EAD responses of the female mosquito Culex pipiens antenna were tested on a synthetic mixture of 1-octen-3-ol, and two sesquiterpene hydrocarbons, β-caryophyllene and isocaryophyllene, with about 100 ng of each compound in the mixture.
The GC-EAD responses of the female mosquito Culex pipiens antenna were tested on a synthetic mixture of 1-octen-3-ol, and representative sesquiterpene hydrocarbons and derivatives including (+)-longipinene, (−)-isolongifolene, (+)-longifolene, β-caryophyllene, and isolongifolenone, with about 100 ng of each compound in the mixture.
Antennal responses were weak, but repeatable, thus are considered to be true responses.
The following procedures were employed to test the EAD response of an insect antenna to a repellent compound. The GC-EAD technique provides an efficient tool for screening behaviorally active repellents. Several synthetic mixtures of potential insect repellent candidates, mostly sesquiterpene hydrocarbons and derivatives, were analyzed in splitless mode using a Varian CP-3800 GC equipped with a polar column (Innowax; 1.0 μm film thickness, 30 m×0.53 mm ID; J & W Scientific), and a 1:1 effluent splitter that allowed simultaneous flame ionization detection (FID) and EAD of the separated volatile compounds. Helium was used as the carrier gas, and the injector temperature was 220° C. The column temperature was 50° C. for 2 min, rising to 240° C. at 10° C./min, then held for 10 min. The outlet for the EAD was held in a humidified air stream flowing at 0.5 liter/min. over an antennal preparation. A glass capillary indifferent electrode filled with Beadle-Ephrussi Ringer, and grounded via a silver wire, was inserted into the severed insect's head with the antennae. A similar recording electrode connected to a high-impedance DC amplifier with automatic baseline drift compensation was placed in contact with the distal end of one antenna (Zhang et al., Chemoecology, 10:69-80 (2000)). The antennal signals were stored and analyzed on a PC equipped with a serial IDAC interface box and the program EAD ver. 2.5 (Syntech, Hilversum, The Netherlands). The compound 1-octen-3-ol (known attractant for many flies and mosquitoes) was included in most of the synthetic mixtures, as a positive control. The results of the experiments are shown in FIGS. 1-10 and described above.

Phlebotomus papatasi = assay: Y-tube olfactometer behavioral bioassay (spatial repellency); assay type: in vivo; conditions: for SAI (Spatial Activity Index): Phlebotomus papatasi; for Number of mosquitoes in each arm: Repellent: Phlebotomus papatasi (sand fly) females, release rate per chemical (1-35 mg/day); for Number of mosquitoes in each arm: Repellent / Number of mosquitoes in each arm: Blank / Number of mosquitoes in each arm: Bottom: 10 min; for Number of mosquitoes in each arm: Blank / Number of mosquitoes in each arm: Bottom: Phlebotomus papatasi females, release rate per chemical
Outline: (§1)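 Female insects (25-40 per run; mosquitoes 6-10 days old, sand flies 3-10 days) released into a CO2-baited Y-tube holding a treatment dispenser in one arm and a blank in the other; arm counts taken after 10 min at 23-25° C. Arms swapped in a repeat run; pooled data tested by χ2 (df=1).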

Aedes aegypti [2] = assay: as above; assay type: in vivo; conditions: for Number of mosquitoes in each arm: Blank / Number of mosquitoes in each arm: Bottom / Number of mosquitoes in each arm: Repellent: Aedes aegypti females, release rate per chemical (1-60 mg/day), 10 min; for Number of mosquitoes in each arm: Repellent: two replicates pooled; for SAI (Spatial Activity Index): Aedes aegypti, (Nc − Nt)/(Nc + Nt), −1 to 1, zero indicating no response
Outline: as §1

Anopheles stephensi = assay: K&D module behavioral bioassay (topical repellency, biting); assay type: in vivo
Outline: (§2)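 In vitro six-cell K&D module over 38 °C CPDA+ATP artificial blood under collagen membrane, topped by nylon organdy treated with five ethanol dilutions of test chemical (ethanol blank; DEET ca. 10 μg/cm^2 positive control). Five starved (24 h) 5–10 d-old females per cell. Biting counted over 3 min, three replicates per chemical and species.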

Aedes aegypti [3] = assay: as above; assay type: in vivo
Outline: as §2

[4] = 10 μg/cm^2, DEET values are the positive control run with the chemical

Compound | GC-EAD antennal activity [1] | SAI (Spatial Activity Index) (Phlebotomus papatasi) | Number of mosquitoes in each arm: Repellent (Phlebotomus papatasi) | Number of mosquitoes in each arm: Blank (Phlebotomus papatasi) | Number of mosquitoes in each arm: Bottom (Phlebotomus papatasi) | Number of mosquitoes in each arm: Blank (Aedes aegypti [2]) | Number of mosquitoes in each arm: Bottom (Aedes aegypti [2]) | Number of mosquitoes in each arm: Repellent (Aedes aegypti [2]) | SAI (Spatial Activity Index) (Aedes aegypti [2]) | % of biting (±SE) (N = 3) (Anopheles stephensi; [4]) | % of biting (±SE) (N = 3) (Anopheles stephensi; 100 μg/cm^2) | % of biting (±SE) (N = 3) (Anopheles stephensi; 500 μg/cm^2) | % of biting (±SE) (N = 3) (Anopheles stephensi; 1000 μg/cm^2) | % of biting (±SE) (N = 3) (Aedes aegypti [3]; [4]) | % of biting (±SE) (N = 3) (Aedes aegypti [3]; 100 μg/cm^2) | % of biting (±SE) (N = 3) (Aedes aegypti [3]; 500 μg/cm^2) | % of biting (±SE) (N = 3) (Aedes aegypti [3]; 1000 μg/cm^2)
C=C1C2CCC3[C@H]2C(C)(C)CCC[C@]13C (single isomer, unassigned; (+)) [(+)-Longifolene] | active | 0.55 | 5 | 17 | 41 | 20 | 37 | 5 | 0.60 | 53 ± 7c % | 33 ± 7bc % | 0 ± 0a % | 0 ± 0a % | 53 ± 7c % | 33 ± 13bc % | 0 ± 0a % | 0 ± 0a %
C=C1CC/C=C(\C)CC[C@@H]2[C@@H]1CC2(C)C [β-Caryophyllene, β-caryophyllene] | active | 0.57 | 9 | 33 | 25 | 20 | 40 | 6 | 0.54 | 47 ± 18bc % | 40 ± 12bc % | 0 ± 0a % | 7 ± 7a % | 40 ± 12b % | 33 ± 24b % | 0 ± 0a % | 0 ± 0a %
C=C1CC/C=C(/C)CC[C@@H]2[C@@H]1CC2(C)C [Isocaryophyllene, isocaryophyllene] | active | 0.23 | 40 | 64 | 34 | 35 | 31 | 8 | 0.63 | 33 ± 13b % | 7 ± 7a % | 0 ± 0a % | 0 ± 0a % | 33 ± 7b % | 0 ± 0a % | 0 ± 0a % | 0 ± 0a %
